Measurements as given in patent US20150105252A1, “SUBSTITUTED PYRAZOLES AS HERBICIDES” (E I DU PONT DE NEMOURS AND COMPANY, priority 2013, published 2015).

Experiments:
pigweed = test: Test A preemergence; assay type: in vivo, Amaranthus retroflexus
How it was run: (§1)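 Pre- and postemergence greenhouse test; loam+sand; cpd in non-phytotox. solvent/surfactant; post at 1–2 leaf, 2–10 cm; visual score ~10 d, 0 = none, 100 = complete control.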

wheat [1] = test: Test A postemergence; assay type: in vivo, Triticum aestivum
How it was run: as §1

rice = test: Test B flood; assay type: in vivo, Oryza sativa; conditions: 250 g ai/ha, visual rating on 0 to 100 scale (0 no effect, 100 complete control), 13 to 15 days
How it was run: (§2)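 2-leaf plants; pots flooded 3 cm over soil; compound added to paddy water, depth kept constant. Greenhouse 13–15 d. Visual rating vs controls, 0–100 scale (100 = complete control); dash = no result.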

sedge, umbrella = test: Test B flood; assay type: in vivo, Cyperus difformis; conditions: 250 g ai/ha, visual rating on 0 to 100 scale (0 no effect, 100 complete control), 13 to 15 days
How it was run: as §2

wheat [2] = test: Test C preemergence; assay type: in vivo, Triticum aestivum; conditions: for Plant response rating (scale of 0 to 100), Wheat: Preemergence, 250 g ai/ha
How it was run: (§3)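 In this greenhouse assay, seeded soil (loam plus sand) or emerged seedlings in peat-vermiculite medium were treated with formulated compound. Roughly two weeks later (13–15 days), each species was scored visually relative to controls, from 0 for no effect to 100 for complete control.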

galium = test: Test C preemergence; assay type: in vivo, Galium aparine; conditions: for Plant response rating (scale of 0 to 100), Galium: Preemergence, 250 g ai/ha
How it was run: as §3

corn = test: Test C preemergence; assay type: in vivo, Zea mays; conditions: for Plant response rating (scale of 0 to 100), Corn: Preemergence, 250 g ai/ha
How it was run: as §3

lambsquarters [3] = test: Test C preemergence; assay type: in vivo, Chenopodium album; conditions: for Plant response rating (scale of 0 to 100), Lambsquarters: Preemergence, 250 g ai/ha
How it was run: as §3

ragweed = test: Test C preemergence; assay type: in vivo, Ambrosia elation; conditions: for Plant response rating (scale of 0 to 100), Ragweed: Preemergence, 250 g ai/ha
How it was run: as §3

ryegrass, Italian = test: Test C postemergence; assay type: in vivo, Lolium multiflorum; conditions: for Ryegrass, Italian plant response rating / Plant response rating, Ryegrass, Italian: postemergence; for Ryegrass, Italian plant response rating: 62 g ai/ha, scale 0 to 100
How it was run: as §3

crabgrass, large = test: Test C postemergence; assay type: in vivo, Digitaria sanguinalis; conditions: for Crabgrass, Large plant response rating: scale 0 to 100
How it was run: as §3

lambsquarters [4] = test: Test C postemergence; assay type: in vivo, Chenopodium album; conditions: for Lambsquarters plant response rating: scale 0 to 100
How it was run: as §3

kochia = test: Test C postemergence; assay type: in vivo, Kochia scoparia; conditions: for Kochia plant response rating: scale 0 to 100
How it was run: as §3

[5] = preemergence, 31 g ai/ha, scale 0 to 100 (0 no effect, 100 complete control), 13 to 15 days
[6] = preemergence, 62 g ai/ha, 13 to 15 days, scale 0 to 100, 0 = no effect, 100 = complete control
[7] = preemergence, 125 g ai/ha, scale 0 to 100, 0 is no effect, 100 is complete control
[8] = 250 g ai/ha, scale 0 to 100 (0 no effect, 100 complete control)
[9] = 125 g ai/ha, scale 0 to 100, 0 no effect, 100 complete control
[10] = postemergence, 250 g ai/ha, scale 0 to 100 (0 no effect, 100 complete control)
[11] = postemergence, 125 g ai/ha, scale 0 to 100, 0 no effect, 100 complete control
[12] = preemergence, 31 g ai/ha, visual rating, scale 0 to 100 (0 no effect, 100 complete control), 13 to 15 days
[13] = preemergence, 62 g ai/ha, scale 0 to 100 (0 no effect, 100 complete control), 13 to 15 days
[14] = Postemergence, 31 g ai/ha, visually evaluated after 13 to 15 days

Cc1cc(C(=O)NCC(F)(F)F)nn1Cc1ccnc(C(F)(F)F)c1 [Compound 74]
Pigweed plant response rating (pigweed; Preemergence, 1000 g ai/ha, 0 to 100 scale, 0 no effect, 100 complete control): 100
Wheat plant response rating (wheat [1]; Postemergence, 1000 g ai/ha, visual rating after approx. 10 days, 0 to 100 scale (0 no effect, 100 complete control)): 90
Plant response rating, Rice (rice): 0
Plant response rating, Sedge, Umbrella (sedge, umbrella): 65
Plant response rating (scale of 0 to 100), Wheat (wheat [2]): 90
Wheat plant response rating (wheat [2]; [5]): 0
Plant response rating, Wheat (wheat [2]; [6]): 5
Wheat plant response rating (wheat [2]; [7]): 15
Plant response rating (scale of 0 to 100), Galium (galium): 100
Galium plant response rating (galium; [5]): 85
Plant response rating, Galium (galium; [6]): 100
Galium plant response rating (galium; [7]): 100
Plant response rating (scale of 0 to 100), Corn (corn): 98
Corn plant response rating (corn; [5]): 10
Plant response rating, Corn (corn; [6]): 60
Corn plant response rating (corn; [7]): 75
Plant response rating (scale of 0 to 100), Lambsquarters (lambsquarters [3]): 95
Lambsquarters plant response rating (lambsquarters [3]; [5]): 85
Plant response rating, Lambsquarters (lambsquarters [3]; [6]): 90
Lambsquarters plant response rating (lambsquarters [3]; [7]): 90
Plant response rating (scale of 0 to 100), Ragweed (ragweed): 90
Ragweed plant response rating (ragweed; [5]): 30
Plant response rating, Ragweed (ragweed; [6]): 60
Ragweed plant response rating (ragweed; [7]): 80
Ryegrass, Italian plant response rating (ryegrass, Italian): 0
Plant response rating, Ryegrass, Italian (ryegrass, Italian; [8]): 0
Plant response rating, Ryegrass, Italian (ryegrass, Italian; [9]): 0
Crabgrass, Large plant response rating (crabgrass, large; Postemergence, 31 g ai/ha): 10
Crabgrass, Large plant response rating (crabgrass, large; postemergence, 62 g ai/ha): 20
Plant response rating, Crabgrass, Large (crabgrass, large; [10]): 75
Plant response rating, Crabgrass, Large (crabgrass, large; [11]): 30
Lambsquarters plant response rating (lambsquarters [4]; Postemergence, 31 g ai/ha): 20
Lambsquarters plant response rating (lambsquarters [4]; postemergence, 62 g ai/ha): 35
Plant response rating, Lambsquarters (lambsquarters [4]; [10]): 90
Plant response rating, Lambsquarters (lambsquarters [4]; [11]): 80
Kochia plant response rating (kochia; Postemergence, 31 g ai/ha): 20
Kochia plant response rating (kochia; postemergence, 62 g ai/ha): 50
Plant response rating, Kochia (kochia; [10]): 90
Plant response rating, Kochia (kochia; [11]): 80

CCc1cc(C(=O)NCC(F)(F)F)nn1Cc1cc(C(F)(F)F)nn1C [Compound 108, 5-ethyl-1-[[1-methyl-3-(trifluoromethyl)-1H-pyrazole-5-yl]methyl]-N-(2,2,2-trifluoroethyl)-1H-pyrazole-3-carboxamide]
Pigweed plant response rating (pigweed; preemergence, 125 g ai/ha, visual injury, 0 to 100 scale, approx. 10 days): 100
Pigweed plant response rating (pigweed; preemergence, 500 g ai/ha, visual injury after approx. 10 days, 0 to 100 scale (0 no effect, 100 complete control)): 100
Wheat plant response rating (wheat [1]; Postemergence, 500 g ai/ha, visual rating after approx. 10 days, 0 to 100 scale (0 no effect, 100 complete control)): 90
Wheat plant response rating (wheat [1]; postemergence, 125 g ai/ha, about 10 days, visual rating on 0 to 100 scale (0 no effect, 100 complete control)): 40
Plant response rating, Rice (rice): 15
Plant response rating, Sedge, Umbrella (sedge, umbrella): 70
Plant response rating (scale of 0 to 100), Wheat (wheat [2]): 70
Wheat plant response rating (wheat [2]; [12]): 10
Wheat plant response rating (wheat [2]; [13]): 10
Wheat plant response rating (wheat [2]; [7]): 60
Plant response rating (scale of 0 to 100), Galium (galium): 100
Galium plant response rating (galium; [12]): 85
Galium plant response rating (galium; [13]): 100
Galium plant response rating (galium; [7]): 100
Plant response rating (scale of 0 to 100), Corn (corn): 95
Corn plant response rating (corn; [12]): 5
Corn plant response rating (corn; [13]): 30
Corn plant response rating (corn; [7]): 95
Plant response rating (scale of 0 to 100), Lambsquarters (lambsquarters [3]): 100
Lambsquarters plant response rating (lambsquarters [3]; [12]): 100
Lambsquarters plant response rating (lambsquarters [3]; [13]): 100
Lambsquarters plant response rating (lambsquarters [3]; [7]): 100
Plant response rating (scale of 0 to 100), Ragweed (ragweed): 100
Ragweed plant response rating (ragweed; [12]): 95
Ragweed plant response rating (ragweed; [13]): 95
Ragweed plant response rating (ragweed; [7]): 95
Plant response rating (scale of 0 to 100 where 0 is no effect and 100 is complete control), Ryegrass, Italian (ryegrass, Italian; [14]): 0
Ryegrass, Italian plant response rating (ryegrass, Italian): 5
Plant response rating, Ryegrass, Italian (ryegrass, Italian; [8]): 20
Plant response rating, Ryegrass, Italian (ryegrass, Italian; [9]): 5
Plant response rating (scale of 0 to 100 where 0 is no effect and 100 is complete control), Crabgrass, Large (crabgrass, large; [14]): 5
Crabgrass, Large plant response rating (crabgrass, large; postemergence, 62 g ai/ha): 10
Plant response rating, Crabgrass, Large (crabgrass, large; [10]): 50
Plant response rating, Crabgrass, Large (crabgrass, large; [11]): 10
Plant response rating (scale of 0 to 100 where 0 is no effect and 100 is complete control), Lambsquarters (lambsquarters [4]; [14]): 60
Lambsquarters plant response rating (lambsquarters [4]; postemergence, 62 g ai/ha): 60
Plant response rating, Lambsquarters (lambsquarters [4]; [10]): 85
Plant response rating, Lambsquarters (lambsquarters [4]; [11]): 80
Plant response rating (scale of 0 to 100 where 0 is no effect and 100 is complete control), Kochia (kochia; [14]): 40
Kochia plant response rating (kochia; postemergence, 62 g ai/ha): 60
Plant response rating, Kochia (kochia; [10]): 90
Plant response rating, Kochia (kochia; [11]): 80
